Experimental data from PMC4818591 (ChemMedChem, 2015).

Assays:
HDAC1 = HDAC1 (Homo sapiens, UniProt Q13547); test: HDAC1 isozyme inhibition; assay type: biochemical; conditions: for SI HDAC1/6: selectivity index
HDAC2 = HDAC2 (Homo sapiens, UniProt Q92769); test: HDAC2 isozyme inhibition; assay type: biochemical; conditions: for SI HDAC2/6: selectivity index
HDAC3 = HDAC3 (Homo sapiens, UniProt O15379); test: HDAC3 isozyme inhibition; assay type: biochemical; conditions: for SI HDAC3/6: selectivity index
HDAC3, sequence (O15379 whole entry): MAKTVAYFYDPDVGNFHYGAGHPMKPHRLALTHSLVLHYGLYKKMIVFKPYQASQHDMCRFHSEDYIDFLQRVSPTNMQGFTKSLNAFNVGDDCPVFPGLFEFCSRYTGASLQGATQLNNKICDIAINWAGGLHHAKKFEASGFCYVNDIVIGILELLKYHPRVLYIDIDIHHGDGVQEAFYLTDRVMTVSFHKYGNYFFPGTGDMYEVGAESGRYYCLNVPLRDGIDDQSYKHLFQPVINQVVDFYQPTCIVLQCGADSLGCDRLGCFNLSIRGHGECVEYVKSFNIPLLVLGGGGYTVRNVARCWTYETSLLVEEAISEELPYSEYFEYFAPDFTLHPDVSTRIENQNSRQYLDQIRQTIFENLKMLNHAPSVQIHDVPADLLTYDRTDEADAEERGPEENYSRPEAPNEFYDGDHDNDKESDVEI
HDAC3, sequence (Q9Y618 395-489 partner limits assumed): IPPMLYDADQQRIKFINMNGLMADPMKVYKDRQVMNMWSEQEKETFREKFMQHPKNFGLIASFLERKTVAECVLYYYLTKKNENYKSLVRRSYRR

HDAC6 = molecular target: T1, HDAC6 (Homo sapiens, UniProt Q9UBN7); test: HDAC6 isozyme inhibition; assay type: biochemical
T1 sequence (Q9UBN7 1-1215): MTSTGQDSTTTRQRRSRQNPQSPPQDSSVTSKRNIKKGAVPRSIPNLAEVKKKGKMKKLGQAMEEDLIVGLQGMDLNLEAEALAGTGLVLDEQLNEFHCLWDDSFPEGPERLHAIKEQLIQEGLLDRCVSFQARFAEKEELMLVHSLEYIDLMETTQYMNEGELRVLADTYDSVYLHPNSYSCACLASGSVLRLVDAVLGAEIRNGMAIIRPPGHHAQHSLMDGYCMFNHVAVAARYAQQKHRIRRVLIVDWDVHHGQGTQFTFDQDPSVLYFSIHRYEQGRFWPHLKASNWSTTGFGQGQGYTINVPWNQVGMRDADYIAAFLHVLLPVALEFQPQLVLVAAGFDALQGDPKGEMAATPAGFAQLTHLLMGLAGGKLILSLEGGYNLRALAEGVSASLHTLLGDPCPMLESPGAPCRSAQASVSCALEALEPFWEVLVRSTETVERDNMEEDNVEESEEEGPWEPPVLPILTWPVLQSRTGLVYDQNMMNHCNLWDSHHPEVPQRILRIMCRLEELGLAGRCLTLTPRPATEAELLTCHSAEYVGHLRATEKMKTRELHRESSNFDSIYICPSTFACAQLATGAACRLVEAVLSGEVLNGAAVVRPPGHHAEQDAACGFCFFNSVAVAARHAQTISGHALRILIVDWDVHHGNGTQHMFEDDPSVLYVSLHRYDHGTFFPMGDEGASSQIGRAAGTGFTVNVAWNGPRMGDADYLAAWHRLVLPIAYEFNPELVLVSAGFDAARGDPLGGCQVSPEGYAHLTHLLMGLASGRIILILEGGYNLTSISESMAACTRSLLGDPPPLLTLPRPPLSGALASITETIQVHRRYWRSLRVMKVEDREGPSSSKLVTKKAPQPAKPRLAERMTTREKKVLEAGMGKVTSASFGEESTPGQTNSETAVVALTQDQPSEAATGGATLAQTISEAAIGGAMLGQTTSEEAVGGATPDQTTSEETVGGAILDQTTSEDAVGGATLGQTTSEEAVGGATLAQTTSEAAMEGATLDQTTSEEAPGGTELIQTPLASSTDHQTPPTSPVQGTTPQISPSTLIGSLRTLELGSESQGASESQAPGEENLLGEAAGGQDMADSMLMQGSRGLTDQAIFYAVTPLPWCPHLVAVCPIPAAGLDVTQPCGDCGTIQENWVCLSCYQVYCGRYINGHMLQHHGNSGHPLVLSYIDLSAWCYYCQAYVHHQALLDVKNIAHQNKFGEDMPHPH

HDAC10 = molecular target: T2, HDAC10 (Homo sapiens, UniProt Q969S8); test: HDAC10 isozyme inhibition; assay type: biochemical; conditions: for SI HDAC10/6: selectivity index
T2 sequence (Q969S8 1-669): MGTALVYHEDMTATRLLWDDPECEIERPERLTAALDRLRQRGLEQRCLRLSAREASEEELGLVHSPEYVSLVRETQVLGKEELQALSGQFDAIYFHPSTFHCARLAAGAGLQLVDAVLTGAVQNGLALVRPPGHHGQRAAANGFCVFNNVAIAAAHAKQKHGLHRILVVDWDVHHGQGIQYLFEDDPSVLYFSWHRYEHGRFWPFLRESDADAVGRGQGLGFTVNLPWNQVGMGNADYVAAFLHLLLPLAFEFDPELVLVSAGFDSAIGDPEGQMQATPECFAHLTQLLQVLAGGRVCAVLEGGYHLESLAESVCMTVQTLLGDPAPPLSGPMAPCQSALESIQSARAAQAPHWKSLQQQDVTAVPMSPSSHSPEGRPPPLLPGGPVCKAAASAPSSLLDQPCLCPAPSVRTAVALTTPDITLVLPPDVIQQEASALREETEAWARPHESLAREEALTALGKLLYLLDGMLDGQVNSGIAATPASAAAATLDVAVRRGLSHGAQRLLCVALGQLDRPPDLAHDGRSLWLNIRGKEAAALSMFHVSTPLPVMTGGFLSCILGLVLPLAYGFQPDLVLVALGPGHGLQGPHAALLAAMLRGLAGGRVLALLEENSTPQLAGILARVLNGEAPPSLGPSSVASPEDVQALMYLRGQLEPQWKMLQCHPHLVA

[1] = tested on: L3.6pl pancreatic cancer cells; test: Apoptosis by Hoechst staining and PARP cleavage, L3.6pl; assay type: cell-based; conditions: 10 μM, 24 h
[2] = tested on: BxPC3 pancreatic cancer cells; test: Apoptosis induction, BxPC3; assay type: cell-based; conditions: BxPC3, data not shown
[3] = tested on: L3.6pl pancreatic cancer cells; test: Growth inhibition, MTS cell proliferation assay, L3.6pl; assay type: cell-based; conditions: Homo sapiens, 72 h, read-out: L3.6pl GI50
[4] = tested on: BxPC3 subcutaneous xenograft; conditions: BxPC3 subcutaneous xenograft mouse model; cited from earlier work

HDAC1, sequence (Q13547 whole entry): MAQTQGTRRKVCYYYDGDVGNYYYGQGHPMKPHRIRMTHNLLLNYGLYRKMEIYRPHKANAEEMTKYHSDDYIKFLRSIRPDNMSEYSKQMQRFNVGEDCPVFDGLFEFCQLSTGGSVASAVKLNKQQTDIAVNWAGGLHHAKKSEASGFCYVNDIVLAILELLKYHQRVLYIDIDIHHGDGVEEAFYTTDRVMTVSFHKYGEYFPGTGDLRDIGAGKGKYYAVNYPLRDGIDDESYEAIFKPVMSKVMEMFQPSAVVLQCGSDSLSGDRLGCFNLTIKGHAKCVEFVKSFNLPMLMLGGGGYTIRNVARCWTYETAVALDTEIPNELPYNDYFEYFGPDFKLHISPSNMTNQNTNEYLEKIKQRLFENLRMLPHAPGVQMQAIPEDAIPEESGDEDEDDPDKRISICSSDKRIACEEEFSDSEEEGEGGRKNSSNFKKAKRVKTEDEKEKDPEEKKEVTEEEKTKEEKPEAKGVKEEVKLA
HDAC2, sequence (Q92769 whole entry): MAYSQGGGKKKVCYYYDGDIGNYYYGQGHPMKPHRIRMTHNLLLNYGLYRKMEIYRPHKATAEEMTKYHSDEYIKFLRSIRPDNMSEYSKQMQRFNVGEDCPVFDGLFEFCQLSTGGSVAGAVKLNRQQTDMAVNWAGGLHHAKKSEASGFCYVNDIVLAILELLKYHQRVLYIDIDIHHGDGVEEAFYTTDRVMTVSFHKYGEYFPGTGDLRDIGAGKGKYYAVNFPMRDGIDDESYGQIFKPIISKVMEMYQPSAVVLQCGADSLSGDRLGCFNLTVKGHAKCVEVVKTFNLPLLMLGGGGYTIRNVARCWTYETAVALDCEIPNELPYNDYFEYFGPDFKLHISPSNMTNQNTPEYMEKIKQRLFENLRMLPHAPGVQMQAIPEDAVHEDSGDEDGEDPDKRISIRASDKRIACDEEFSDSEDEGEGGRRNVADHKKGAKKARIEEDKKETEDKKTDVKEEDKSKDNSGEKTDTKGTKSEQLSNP

SMILES | IC50 (HDAC1; read-out: HDAC Isoform, IC50, Class I, 1, singlet, 10-dose IC50 mode, 3-fold serial dilution starting at 30 μM, >50000 = no inhibition at 50 μM) | SI HDAC1/6 (HDAC1) | IC50 (HDAC2; read-out: HDAC Isoform, IC50, Class I, 2, singlet, 10-dose IC50 mode, 3-fold serial dilution starting at 30 μM, >50000 = no inhibition at 50 μM) | SI HDAC2/6 (HDAC2) | IC50 (HDAC3; read-out: HDAC Isoform, IC50, Class I, 3, singlet, 10-dose IC50 mode, 3-fold serial dilution starting at 30 μM, >50000 = no inhibition at 50 μM) | SI HDAC3/6 (HDAC3) | IC50 (HDAC6; read-out: HDAC Isoform, IC50, Class II, 6, duplicate, 10-dose IC50 mode, 3-fold serial dilution starting at 30 μM, average ± standard deviation) | IC50 (HDAC10; read-out: HDAC Isoform, IC50, Class II, 10, singlet, 10-dose IC50 mode, 3-fold serial dilution starting at 30 μM, >50000 = no inhibition at 50 μM) | SI HDAC10/6 (HDAC10) | induction of apoptosis (Hoechst staining, PARP cleavage) [1] | induction of apoptosis [2] | GI50 [3] | apoptosis and tumor growth [4] | selectivity over HDAC1 and HDAC3 (HDAC6; HDAC6 versus HDAC1 and HDAC3) | selectivity over HDAC2 and HDAC10 (HDAC6; HDAC6 versus HDAC2 and HDAC10)
O=C(CCc1cc(C(=O)NO)no1)Nc1nc(-c2ccccc2)cs1 [Compound 2, 5-[2-[N-(4-Phenylthiazol-2-yl)carbamoyl]ethyl]isoxazole-3-carbohydroxyamic Acid] | 307 nM | 10 | 1140 nM | 37 | 320 nM | 10 | 31 ± 3.4 nM | 407 nM | 13 | effectively induced apoptosis | none of compounds 1, 2, or 4 induced apoptosis | – | – | – | –
O=C(CCCc1cc(C(=O)NO)no1)Nc1nc(-c2ccccc2)cs1 [Compound 1, 5-[3-[N-(4-Phenylthiazol-2-yl)carbamoyl]propyl]isoxazole-3-carbohydroxamic Acid] | – | 4.3 | – | 15 | – | 11 | – | – | 10 | effectively induced apoptosis | none of compounds 1, 2, or 4 induced apoptosis | 1300 nM | – | – | –
Cc1[nH]c2ccccc2c1CCNCc1ccc(/C=C/C(=O)NO)cc1 [panobinostat] | – | – | – | – | – | – | – | – | – | – | – | – | promote apoptosis and reduce tumor growth | – | –
CCOC(=O)Nc1ccc(-c2csc(NC(=O)CCCc3cc(C(=O)NO)no3)n2)cc1 [Compound 4, N-[4-[2-[4-[3-(N-Hydroxycarbamoyl)isoxazol-5-yl]butyrylamino]thiazol-4-yl]phenyl]carbamic Acid Ethyl Ester] | – | 4.1 | – | 17 | – | 7.2 | – | – | 6.6 | effectively induced apoptosis | none of compounds 1, 2, or 4 induced apoptosis | – | – | – | –
CC(C)(C)OC(=O)Nc1cccc(-c2cc(C(=O)NCc3ccc(C(=O)NO)cc3)no2)c1 [Compound 14, N-[3-[3-[N-[4-(N-Hydroxycarbamoyl)benzyl]carbamoyl]isoxazol-5-yl]phenyl]carbamic Acid tert-Butyl Ester] | – | 694 | – | 2160 | – | 1230 | – | – | 4270 | – | – | – | – | at least 400 fold | more than 3 orders of magnitude
